Experimental data as given in patent US20050065136A1, “Methods and compositions for the treatment of infertility using dilute hormone solutions” (priority 2003, published 2005).

How the values were obtained:
Assay type in all cases: in vivo, human
[1] = Clinical responses of hormone allergy symptoms to intradermal administration of progesterone; settings: dilute doses, sublingually or intradermally
Description: Patients experiencing several hormone allergy symptoms experienced relief when administered dilute doses of progesterone either sublingually or intradermally. […] The symptoms measured were irritation or pain in the neck, nose, eyes, throat, ear, skin, back, hips, upper extremities and lower extremities, headache, and shortness of breath. The patients were administered 0.5 mg of progesterone intradermally. Patients were designated as responding patients in Table 2 if they experienced any relief of the indicated symptom. Patients were also asked to estimate the amount of improvement in the symptom, an average of which is indicated as the % improvement in responding patients. In Table 3 the probability that positive results (i.e. patients responding to treatment) were due to random effects was calculated using standard statistical analysis of patient tests. It was assumed that if the treatment has no effect, there is a 50% chance that a patient will indicate a positive response and a 50% chance that a patient will indicate a negative response. From this assumption, coupled with the actual data, one may calculate the probability that positive responses are due to an actual effect of the treatment and not simply random effects. In general, results with a less than 1% chance of being random are considered highly significant. […]

[2] = Symptom relief on a 0 to 10 scale in women with acute asthma after intradermal progesterone
Description: To test this hypothesis, 142 women with acute asthma were asked to evaluate the severity of their symptoms using an eleven point scale. Ten was assigned to the most severe symptoms, while 0 was assigned to an absence of symptoms. Immediately after assessing their symptoms on this scale, patents were administered 0.5 mg of progesterone by intradermal injection. Approximately 15 to 30 seconds after the injection was administered, each patient was asked if her symptoms were worse, better, or unchanged. Each patient was also asked to rate her present symptoms on the same 0 to 10 scale. […] Of the 142 patients tested 129 (91%) positively responded to the treatment. Using the random effects calculations described in Example 3, this correlates to a less than 0.1% chance that the results are random. Thus the results may be considered highly significant.

[3] = Relief of symptoms with intradermal estrogen in patients not relieved by progesterone; settings: 0.4 mg intradermally; many patients whose symptoms are not relieved using progesterone
[4] = 0.5 mg intradermal injection, 142 women with acute asthma, 15 to 30 seconds after injection

Compound: CC(=O)[C@H]1CC[C@H]2[C@@H]3CCC4=CC(=O)CC[C@]4(C)[C@H]3CC[C@]12C [Progesterone]
- effectiveness in producing symptom relief as compared to several other antigens [1]: most effective
- speed of relief ([1]; in most patients): very quickly
- average symptomatic relief for those who reported some response ([2]; 0 to 10 scale, responders only): 5 points
- average symptomatic relief for all patients ([2]; 0 to 10 scale, responding and not responding patients): 3.4 points
- % of patients reporting 100% relief of asthma symptoms ([2]; 0.5 mg intradermal injection): 28%
- average reduction in symptoms relative to the maximum individual patient score ([2]; 0.5 mg intradermal injection): 62%
- % of patients positively responding to the treatment [2, 4]: 91%
- number of patients positively responding to the treatment [2, 4]: 129
- number of patients reporting 100% relief of asthma symptoms ([2]; 0.5 mg intradermal injection, of the 129 patients with symptom relief): 40

Compound: estrogen
- relief of symptoms [3]: experience relief
